Experimental data: PMC6433232, “Targeting mitochondria in cancer therapy could provide a basis for the selective anti-cancer activity” (PLoS ONE, 2019)
“And” between values parts separate entries of the source, which are not always exact repeats. Equal entries are not always repeated. Where two headings read alike, the source gives them in different places.

How the values were obtained:
[1] = test system: pancreatic cancer MIA PaCa-2 cells; experiment: cells; conditions: Homo sapiens, MIA PaCa-2, read-out: EC50, μM MIA PaCa-2
Protocol: Fig 1 A, Structure of NSC130362. B, Dose response curve of NSC130362 in MIA PaCa-2 cells. Cells were pre-incubated with NSC130362 for 2 h followed by addition of ATO (5 μM) and incubation for an additional 24 h. At the end of the treatment, the ratio of dead cells was determined by a CellTiterGlo reagent.

[2] = test system: human primary hepatocytes; experiment: cells; conditions: Hepatocyte, read-out: EC50, μM Hepatocytes
Description: We selected hepatocytes as normal cells because hepatocytes are mediate toxicity to multiple drugs and are used as a standard to assess toxicity of drugs in vitro [28]. […] For comparison with the standard of care, doxorubicin was also included in this analysis.

[3] = test system: primary acute myeloid leukemia (AML) cells obtained from patients; experiment: Kinase inhibitor library screening with and without NSC130362, primary AML cells; format: cell-based, Human
[4] = ratio of EC50 for inhibitor to EC50 for inhibitor/NSC130362 combination, NSC130362 10 μM, Screen N 1
[5] = ratio of EC50 for inhibitor to EC50 for inhibitor/NSC130362 combination, NSC130362 10 μM, Screen N 3
[6] = ratio of EC50 for inhibitor to EC50 for inhibitor/NSC130362 combination, NSC130362 10 μM, Screen N 2

SMILES | EC50 decrease, fold (Screen N 1) [3, 4] [fold] | EC50 decrease, fold (Screen N 3) [3, 5] | EC50 decrease, fold (Screen N 2) [3, 6] [fold] | also measured
Cc1ccc(NC2=C(Cl)C(=O)c3ccccc3C2=O)cc1 [compound 41] |  |  |  | EC50 [1]: 2.5 µM; EC50 [2]: 8.4 µM
CCOCCNC1=C(Cl)C(=O)c2ccccc2C1=O [compound 24] |  |  |  | EC50 [1]: 55.4 µM; EC50 [2]: 67.8 µM
CC(=O)NC1=C(Cl)C(=O)c2ccccc2C1=O [compound 29] |  |  |  | EC50 [1]: 5.4 µM; EC50 [2]: 9.7 µM
COc1cc(N2CCC(N3CCN(C)CC3)CC2)ccc1Nc1ncc(Cl)c(Nc2ccccc2P(C)(C)=O)n1 [Brigatininb (AP-26113)] | 0.0179 | 1.8 fold |  | 
Nc1ccn([C@@H]2O[C@H](CO)[C@@H](O)[C@@H]2O)c(=O)n1 [Cytarabine] | 28.6 | 0.132 fold | 1.0 | 
CN(C)C/C=C/C(=O)Nc1cc2c(Nc3ccc(F)c(Cl)c3)ncnc2cc1O[C@H]1CCOC1 [Afatinib (BIBW-2992)] |  |  |  | EC50 decrease, fold (Screen N 1) [3]: 0.5 fold; EC50 decrease, fold (Screen N 2) [3]: 1.2 fold; EC50 decrease, fold (Screen N 3) [3]: 18.4 fold
COc1cc(N2CCC(N3CCN(C)CC3)CC2)ccc1Nc1ncc(Cl)c(Nc2ccccc2S(=O)(=O)C(C)C)n1 [NVP-TAE684] | 0.55 | 0.755 fold | 1.0 | 
Cc1[nH]c2ccc(F)cc2c1-c1nc2c3cccnc3c3ncccc3c2[nH]1 [APTO-253] |  |  | 1.0 | 
Cc1ccc(C(=O)Nc2ccc(CN3CCN(C)CC3)c(C(F)(F)F)c2)cc1C#Cc1cnc2cccnn12 [Ponatinib (AP24534)] |  |  |  | EC50 decrease, fold (Screen N 2) [3]: 0.9 fold and 1.1 fold
Cc1ccc2nc(NC(=O)CSc3nc4c(c(=O)n3-c3ccccc3)SCC4)sc2c1 [IWP2] |  |  | 1.0 | 
O=C(NOCC1CC1)c1ccc(F)c(F)c1Nc1ccc(I)cc1Cl [CI-1040 (PD184352)] | 0.9 | 0.0667 fold | 1.0 | 
COc1cc2nccc(Oc3ccc(NC(=O)C4(C(=O)Nc5ccc(F)cc5)CC4)cc3)c2cc1OC [Cabozantinib (XL-184)] | 3.2 | 0.259 fold | 1.0 | 
Cc1nc(Nc2ncc(C(=O)Nc3c(C)cccc3Cl)s2)cc(N2CCN(CCO)CC2)n1 [Dasatinib] |  |  | 1.0 | 
Cc1[nH]c2ccccc2c1CCNCc1ccc(/C=C/C(=O)NO)cc1 [Panobinostat] | 9.3 | 0.0014 fold | 1.2 | 
C[C@@H](Oc1cc(-c2cnn(C3CCNCC3)c2)cnc1N)c1c(Cl)ccc(F)c1Cl [Crizotinib (PF-2341066)] |  |  |  | EC50 decrease, fold (Screen N 1) [3]: 11.4 fold and 6.3 fold; EC50 decrease, fold (Screen N 2) [3]: 1.0 fold
Nc1ncnc2c1nc(Cl)n2[C@@H]1O[C@H](CO)[C@@H](O)[C@H]1O [8-cl-Adenosine] |  |  | 1.0 | 
O=C(O)c1ccc2c3c1cccc3c(=O)n1c3ccccc3nc21 [STO609] | 1.4 | 0.000816 fold | 1.0 | 
N#CC[C@H](C1CCCC1)n1cc(-c2ncnc3[nH]ccc23)cn1 [Ruxolitinib (INCB018424)] |  |  | 1.0 | 
CC[C@H](Nc1ncnc2[nH]cnc12)c1nc2cccc(F)c2c(=O)n1-c1ccccc1 [GS-1101 (CAL-101)] | 506.3 | 356.4 fold | 1.0 | 
C=CC(=O)Nc1cc2c(Nc3ccc(F)c(Cl)c3)ncnc2cc1OCCCN1CCOCC1 [Canertinib (CI-1033)] | 2.8 | 424.3 fold | 0.7 | 
COc1cc2nccc(Oc3ccc(NC(=O)Nc4cc(C)on4)c(Cl)c3)c2cc1OC [Tivozanib (AV-951)] | 15.6 | 89.9 fold | 1.0 | 
O=C(Nc1ccc2[nH]nc(-c3ccncc3)c2c1)[C@@H]1CCN(CC(=O)N2CCN(c3ccc(-c4ncccn4)cc3)CC2)C1 [SCH-772984] |  |  | 0.8 | 
c1cn2cc(-c3ccc4cn[nH]c4c3)nc(Nc3ccc(N4CCOCC4)cc3)c2n1 [Entospletinib (GS-9973)] | 16.8 | 0.131 fold | 1.0 | 

SMILES | EC50 decrease, fold (Screen N 1) [3, 4] [fold] | EC50 decrease, fold (Screen N 3) [3, 5] | EC50 decrease, fold (Screen N 2) [3, 6] [fold] | also measured
Cc1ccc(Nc2nccc(N(C)c3ccc4c(C)n(C)nc4c3)n2)cc1S(N)(=O)=O [Pazopanib (GW786034)] | 1.0 | 193.3 fold and 170.6 fold | 1.0 | 
CCCCNc1ncc2c(-c3ccc(CN4CCN(C)CC4)cc3)cn(C3CCC(O)CC3)c2n1 (stereo not shown) [UNC 2025A] |  |  | 1.0 | 
N[C@@H]1CCCN(c2c(Br)cnc3[nH]cc(NC(=O)C4CC4)c23)C1 [GDC-0575] |  |  | 1.0 | 
COc1cc(C(=O)O)ccc1NC(=O)[C@@H]1N[C@@H](CC(C)(C)C)[C@](C#N)(c2ccc(Cl)cc2F)[C@H]1c1cccc(Cl)c1F [Idesanutlin] |  |  | 1.0 | 
Oc1cccc(-c2nc(N3CCOCC3)c3oc4ncccc4c3n2)c1 [PI-103] | 0.452 | 1089.9 fold | 2.6 | 
NC1(c2ccc(-c3nc4ccn5c(=O)[nH]nc5c4cc3-c3ccccc3)cc2)CCC1 [MK-2206] | 15.9 | 1.0 fold | 1.0 | 
CC(C)(C)c1ccc(S(=O)(=O)/C=C/C#N)cc1 [Bay 11-7085] | 69.0 | 221.9 fold | 1.0 | 
O=c1cc(-c2cccc3c2Sc2ccccc2S3)oc(N2CCOCC2)c1 [KU-55933] | 0.222 | 959.3 fold | 1.0 | 
CNC(=O)c1c(F)cccc1Nc1nc(Nc2cc3c(cc2OC)CCN3C(=O)CN(C)C)nc2[nH]ccc12 [GSK-1838705A] | 257.7 | 522.0 fold | 1.0 | 
COc1cc(Nc2ncc3c(n2)-c2ccc(Cl)cc2C(c2c(F)cccc2OC)=NC3)ccc1C(=O)O [Alisertib (MLN8237)] | 1.0 | 0.3 fold | 1.0 | 
COc1cc(OC)c(/C=C/S(=O)(=O)Cc2ccc(OC)c(NCC(=O)O)c2)c(OC)c1 [ON-01910] |  |  | 1.0 | 
COc1cc2c(Oc3ccc(NC(=O)C4(C(=O)Nc5ccc(F)cc5)CC4)cc3F)ccnc2cc1OCCCN1CCOCC1 [Foretinib (XL880)] | 0.666 | 2.2 fold | 1.0 | 
Cc1[nH]c(/C=C2\C(=O)Nc3ccc(S(=O)(=O)N(C)c4cccc(Cl)c4)cc32)c(C)c1C(=O)N1CCN(C)CC1 [SU11274] | 11.9 | 0.000745 fold | 1.0 | 
COc1cc2c(Oc3ccc4[nH]c(C)cc4c3F)ncnc2cc1OCCCN1CCCC1 [Cediranib (AZD2171)] | 8.3 | 0.00538 fold | 1.0 | 
N#CCNC(=O)c1ccc(-c2ccnc(Nc3ccc(N4CCOCC4)cc3)n2)cc1 [CYT387] | 0.117 | 320.1 fold | 1.0 | 
Cn1cc(-c2ccc3nnc(C(F)(F)c4ccc5ncccc5c4)n3n2)cn1 [JNJ-38877605] | 7.6 | 0.00829 fold | 1.0 | 
Cn1nccc1Nc1nccc(-c2ccn([C@H](CO)c3ccc(Cl)c(F)c3)c(=O)c2)n1 [GDC-0994] |  |  | 1.0 | 
Cc1ccc2nc(NCCN)c3ncc(C)n3c2c1 [BMS-345541] | 1.2 | 0.01 fold | 1.0 | 
O=c1ncn2nc(Sc3ccc(F)cc3F)ccc2c1-c1c(Cl)cccc1Cl [VX-745] | 2.9 | 0.0543 fold | 1.0 | 
O=C(Nc1cccc(C(F)(F)F)c1)Nc1cc(S(=O)(=O)NC2CC2)ccc1-c1ccsc1 [AGI-6780] | 1.0 | 17.0 fold | 1.0 | 
Cc1ccc(F)c(NC(=O)Nc2ccc(-c3cccc4[nH]nc(N)c34)cc2)c1 [Linifanib (ABT-869)] | 261.0 | 1.0 fold | 1.4 | 
C=CCNC1=C2C[C@@H](C)C[C@H](OC)[C@H](O)[C@@H](C)/C=C(\C)[C@H](OC(N)=O)[C@@H](OC)/C=C\C=C(/C)C(=O)NC(=CC1=O)C2=O [17-AAG (Tanespimycin)] | 10.6 | 612.9 fold | 12.1 | 
OCCn1cc(-c2ccc3c(c2)CC/C3=N\O)c(-c2ccncc2)n1 [GDC-0879] | 0.9 | 952.6 fold | 1.0 | 
